{"source": "patent US8785491B2", "about": "“Pharmaceutical compositions and methods for treating age-related macular degeneration with melatonin analogues” (Takeda Pharmaceuticals U.S.A., Inc., priority 2008, dated 2014)", "key": {"[1]": {"test_system": "melatonin MT1/MT2 receptors", "details": "cited from earlier work"}, "N18-RE-105 hybrid cells": {"test_system": "N18-RE-105 hybrid cells", "assay": "Effect against glutamate-induced cytotoxicity (LDH release)", "description": "We used ramelteon and metabolite 1 (as synthesized in Example 1) in this study. Idebenone and vitamine E (α-tocopherol) were purchased from Wako Pure Chemical Industries (Osaka, Japan) and used as positive control. All other chemicals were purchased from standard sources.\nFor cytotoxicity studies, cells were plated in 96-well plates at a density of 5,000 cells per well in 0.1 ml of the above medium. After culturing for 24 hr, the medium was removed and replaced with medium containing 10 mM glutamate with or without various concentrations of compounds. After 24 hours of incubation, cytotoxicity was quantitated by the release of the cytosolic enzyme lactate dehydrogenase (LDH) into the culture medium. The percentage of cell viability in the presence of each of the test compounds was calculated from the following formula: % cell viability in the presence of compound={LDH activity (absorbance at 550 nm) in the culture medium with compound plus 10 mM glutamate−LDH activity in the control culture medium/LDH activity in the culture medium with 10 mM glutamate−LDH activity in the control culture medium}×100."}, "[2]": {"test_system": "human retinal pigment epithelial (RPE) cells", "details": "added diurnally to RPE cell cultures for three consecutive days; cited from earlier work"}, "[3]": {"test_system": "age-related macular degeneration", "details": "3 mg daily at bedtime for at least three months; cited from earlier work"}}, "note": "Where two headings read alike, the source gives them in different places.", "data": [{"smiles": "CCC(=O)NCC[C@@H]1CCc2ccc3c(c21)CCO3", "note": "[ramelteon, (S)—N-[2-(1,6,7,8-tetrahydro-2H-indeno[5,4-b]furan-8-yl)ethyl]propionamide]", "values": [{"measurement": "affinity for melatonin MT1/MT2 receptors", "setting": "[1]", "value": "high affinity"}, {"measurement": "effect on cytotoxicity induced by 10 mM glutamate / cell viability", "setting": "N18-RE-105 hybrid cells", "value": "did not affect cell viability"}]}, {"smiles": "COC1=C(OC)C(=O)C(CCCCCCCCCCO)=C(C)C1=O", "note": "[Idebenone]", "values": [{"measurement": "effect on cytotoxicity induced by 10 mM glutamate / cell viability", "setting": "N18-RE-105 hybrid cells", "value": "cell viability was increased"}]}, {"smiles": "COc1ccc2[nH]cc(CCNC(C)=O)c2c1", "note": "[melatonin]", "values": [{"measurement": "effect on cytotoxicity induced by 10 mM glutamate / cell viability", "setting": "N18-RE-105 hybrid cells", "value": "did not affect cell viability"}, {"measurement": "H2O2-induced cell death and mitochondrial DNA damage", "setting": "[2]", "value": "markedly reduced"}, {"measurement": "visual acuity", "setting": "[3]", "value": "remained stable"}]}, {"smiles": "CCC(=O)NCC[C@@H]1CCc2cc(O)c3c(c21)CCO3", "note": "[metabolite 1, (S)—N-(2-[4-hydroxy-1,6,7,8-tetrahydro-2H-indeno[5,4-b]furan-8-yl]ethyl)propionamide]", "values": [{"measurement": "effect on cytotoxicity induced by 10 mM glutamate / cell viability", "setting": "N18-RE-105 hybrid cells", "value": "inhibited"}, {"measurement": "cell death (absorbance, LDH) with varying amounts of compound", "setting": "N18-RE-105 hybrid cells; 10 mM glutamate treated cell culture, increasing amount, FIG. 2", "value": "cell death is reduced"}, {"measurement": "toxicity of glutamate over the basal viability", "setting": "N18-RE-105 hybrid cells; highest concentration, 10 mM glutamate, FIGS. 1 and 2", "value": "completely prevented"}]}, {"smiles": "Cc1c(C)c2c(c(C)c1O)CC[C@@](C)(CCC[C@H](C)CCC[C@H](C)CCCC(C)C)O2", "note": "[tocopherol, α-tocopherol]", "values": [{"measurement": "effect on cytotoxicity induced by 10 mM glutamate / cell viability", "setting": "N18-RE-105 hybrid cells; 10 mM glutamate, 24 hours incubation, LDH release, FIG. 1", "value": "cell viability was increased"}]}]}
